Source: PubChem BioAssay AID296 (DTP/NCI, 2004)
Results filed as inconclusive are left out.

Tested on: MX-1 breast xenograft, nude mice, tumor weight T/C
Test: NCI In Vivo Anticancer Drug Screen. Data for tumor model Human Mammary Carcinoma MX-1 Xenograft (intrarenal inoculation) in NU/NU Swiss (nude) mice
Conditions: endpoint: mean tumor weight change, higher = larger tumour
Outline: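 Mice carrying the implanted tumor receive either test agent or vehicle. Tumor size or survival is then recorded for both groups. Results are stated as the treated-to-control quotient.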

[1] = dose: 150.0 mg/kg/injection, schedule: Q04DX003 (sc), vehicle: saline with Tween-80
[2] = dose: 600.0 mg/kg/injection, schedule: Q04DX003 (sc), vehicle: saline with Tween-80
[3] = dose: 200.0 mg/kg/injection, schedule: Q04DX003 (sc), vehicle: Klucel (hydroxypropylcellulose) (HPC)
[4] = dose: 400.0 mg/kg/injection, schedule: Q04DX003 (sc), vehicle: Klucel (hydroxypropylcellulose) (HPC)
[5] = dose: 75.0 mg/kg/injection, schedule: Q04DX003 (sc), vehicle: saline with Tween-80

## NC(=O)Oc1cccc(OC(N)=O)c1
dose: 300.0 mg/kg/injection, schedule: Q04DX003 (sc), vehicle: water
  T/C: 68 % of control
dose: 600.0 mg/kg/injection, schedule: Q04DX003 (sc), vehicle: water
  T/C: 101 % of control
dose: 1200.0 mg/kg/injection, schedule: Q04DX003 (sc), vehicle: water
  T/C: 53 % of control

## O=C(Nc1nncs1)c1ccncc1
[1]
  T/C: 101 % of control
[2]
  T/C: 109 % of control
dose: 1200.0 mg/kg/injection, schedule: Q04DX003 (sc), vehicle: saline with Tween-80
  T/C: 65 % of control

## CCNC(=O)[B-][N+](C)(C)C
dose: 100.0 mg/kg/injection, schedule: Q04DX003 (sc), vehicle: Klucel (hydroxypropylcellulose) (HPC)
  T/C: 115 % of control
[3]
  T/C: 92 % of control
[4]
  T/C: 74 % of control

## CCCCCCCCCCCCCC#CC(=O)O
[5]
  T/C: 87 % of control
[1]
  T/C: 94 % of control
dose: 300.0 mg/kg/injection, schedule: Q04DX003 (sc), vehicle: saline with Tween-80
  T/C: 92 % of control
[2]
  T/C: 77 % of control

## COC(=O)C(F)C(Br)C(=O)OC (centres undefined)
dose: 18.75 mg/kg/injection, schedule: Q04DX003 (sc), vehicle: saline with Tween-80
  T/C: 52 % of control
dose: 37.5 mg/kg/injection, schedule: Q04DX003 (sc), vehicle: saline with Tween-80
  T/C: 49 % of control
[5]
  T/C: 59 % of control

## CCN(Cc1ccc(Cl)c(Cl)c1)c1ccc2nc(N)nc(N)c2c1C
dose: 9.38 mg/kg/injection, schedule: Q04DX003 (sc), vehicle: distilled water + Tween-80
  T/C: 93 % of control
dose: 18.75 mg/kg/injection, schedule: Q04DX003 (sc), vehicle: distilled water + Tween-80
  T/C: 86 % of control

## COc1ccc(C[C@H](N)C(=O)NC2C(CO)OC(n3cnc4c(N(C)C)ncnc43)C2O)cc1 (some centres undefined)
dose: 100.0 mg/kg/injection, schedule: Q04DX003 (sc), vehicle: saline
  T/C: 102 % of control
dose: 200.0 mg/kg/injection, schedule: Q04DX003 (sc), vehicle: saline
  T/C: 99 % of control

## CCN1/C(=C/C=C/C=C\C=C\c2sc3ccc4ccccc4c3[n+]2CC)Sc2ccc3ccccc3c21
dose: 100.0 mg/kg/injection, schedule: Q04DX003 (sc), vehicle: saline with Tween-80
  T/C: 104 % of control
dose: 200.0 mg/kg/injection, schedule: Q04DX003 (sc), vehicle: saline with Tween-80
  T/C: 89 % of control
dose: 400.0 mg/kg/injection, schedule: Q04DX003 (sc), vehicle: saline with Tween-80
  T/C: 101 % of control
dose: 800.0 mg/kg/injection, schedule: Q04DX003 (sc), vehicle: saline with Tween-80
  T/C: 93 % of control

## CCCC(=O)OCc1cc(=O)n(C)c2c3c4c(cc12)c(C)cc(=O)n4CO3
dose: 12.5 mg/kg/injection, schedule: Q01DX010 (sc), vehicle: Klucel (hydroxypropylcellulose) (HPC)
  T/C: 170 % of control
dose: 25.0 mg/kg/injection, schedule: Q01DX010 (sc), vehicle: Klucel (hydroxypropylcellulose) (HPC)
  T/C: 67 % of control
dose: 50.0 mg/kg/injection, schedule: Q01DX010 (sc), vehicle: Klucel (hydroxypropylcellulose) (HPC)
  T/C: 20 % of control
dose: 100.0 mg/kg/injection, schedule: Q01DX010 (sc), vehicle: Klucel (hydroxypropylcellulose) (HPC)
  T/C: 15 % of control
dose: 200.0 mg/kg/injection, schedule: Q01DX010 (sc), vehicle: Klucel (hydroxypropylcellulose) (HPC)
  T/C: 87 % of control
dose: 400.0 mg/kg/injection, schedule: Q01DX010 (sc), vehicle: Klucel (hydroxypropylcellulose) (HPC)
  T/C: 91 % of control
dose: 800.0 mg/kg/injection, schedule: Q01DX010 (sc), vehicle: Klucel (hydroxypropylcellulose) (HPC)
  T/C: 72 % of control

## COc1ccc2[nH]c3ccc4cc[n+](CCN5CCC(C6CCN(CC[n+]7ccc8ccc9[nH]c%10ccc(OC)cc%10c9c8c7)CC6)CC5)cc4c3c2c1
[3]
  T/C: 108 % of control
[4]
  T/C: 80 % of control
dose: 800.0 mg/kg/injection, schedule: Q04DX003 (sc), vehicle: Klucel (hydroxypropylcellulose) (HPC)
  T/C: 99 % of control
dose: 1600.0 mg/kg/injection, schedule: Q04DX003 (sc), vehicle: Klucel (hydroxypropylcellulose) (HPC)
  T/C: 80 % of control

## O=C(CO)c1ccc([N+](=O)[O-])cc1
dose: 100.0 mg/kg/injection, schedule: Q01DX010 (sc), vehicle: saline with Tween-80
  T/C: 95 % of control
dose: 200.0 mg/kg/injection, schedule: Q01DX010 (sc), vehicle: saline with Tween-80
  T/C: 114 % of control
dose: 400.0 mg/kg/injection, schedule: Q01DX010 (sc), vehicle: saline with Tween-80
  T/C: 67 % of control
dose: 800.0 mg/kg/injection, schedule: Q01DX010 (sc), vehicle: saline with Tween-80
  T/C: 63 % of control
